A word on the EC50: it is the concentration at which the effect is half-maximal.

In the first data set the test system is zebrafish embryos.
Assay: not given
On the set-up: method as in earlier work. To be noted: 144 hpf, nominal, converted; cited from earlier work.
For `COCC(=O)Nc1cc(Sc2ccccc2)ccc1N/C(=N\C(=O)OC)NC(=O)OC` [Febantel, febantel], the EC50 was 761 nM.

The data set is the same for the next values; noted with them: nominal, log10; cited from earlier work.
In the case of `COCC(=O)Nc1cc(Sc2ccccc2)ccc1N/C(=N\C(=O)OC)NC(=O)OC` [Febantel, febantel], the “logEC50 144 hpf” value is given as -6.118 M.

System in a further data set: not given
Assay: not given
The following applies: ref Comptox, PubChem or DrugBank; cited from earlier work.
Regarding `CCNc1nc(Cl)nc(NC(C)C)n1` [Atrazine], the logKow is 2.61 and the “pKa (Strongest Basic)” value is 1.6.

Take `CCOP(=S)(OCC)Oc1nc(Cl)c(Cl)cc1Cl` [Chlorpyrifos]: the “Water Solubility” value is reported as 1.4 mg/L, the logKow is listed as 4.96 and the “pKa (Strongest Basic)” value was -4.2.

Take `CCOP(=S)(OCC)Oc1cc(C)nc(C(C)C)n1` [Diazinon]: the logKow is reported as 3.81 and the “pKa (Strongest Basic)” value was 4.2.

As for `COP(=O)(OC)OC=C(Cl)Cl` [Dichlorvos], the logKow was 1.43.

As for `COP(=S)(OC)Oc1ccc([N+](=O)[O-])c(C)c1` [Fenitrothion], the logKow was 3.3.

In the case of `Cl[C@H]1[C@H](Cl)[C@@H](Cl)[C@@H](Cl)[C@H](Cl)[C@H]1Cl` [Lindane], the “Water Solubility” value was 7.3 mg/L and the logKow is on record as 3.72.

Take `CC1(C)C(C=C(Cl)Cl)C1C(=O)OCc1cccc(Oc2ccccc2)c1` (centres unmarked) [Permethrin]: the logKow is 6.5 and the “pKa (Strongest Basic)” value is -3.7.

Consider `CNC(=O)Oc1ccccc1OC(C)C` [Propoxur], for which the logKow was 1.52, the “pKa (Strongest Acidic)” value is 14.8 and the “pKa (Strongest Basic)” value was -4.9.

With `CCNc1nc(Cl)nc(NC(C)(C)C)n1` [Terbuthylazine], the logKow is 3.21 and the “pKa (Strongest Basic)” value is given as 2.

In the case of `c1ccc2[nH]c(-c3cscn3)nc2c1` [Thiabendazole], the logKow is on record as 2.47 and the “pKa (Strongest Basic)” value is on record as 4.6.

Another data set concerns rat cardiomyoblast cells vs fish / zebrafish embryos. Put plainly: Potency ratios of the Rodrigues et al. data. To be noted: bioavailable concentrations; embryo data chronic exposure 35 dpf.
Take `Cl[C@H]1[C@H](Cl)[C@@H](Cl)[C@@H](Cl)[C@H](Cl)[C@H]1Cl` [Lindane]: the “potency ratio (Rodrigues et al. data)” value worked out at 13.6.

The record behind these values is article PMC7872314, “Modeling Bioavailable Concentrations in Zebrafish Cell Lines and Embryos Increases the Correlation of Toxicity Potencies across Test Systems” (Environmental Science & Technology, 2020).
